Laboratory results: US8017348B1, “Assay for Parkinson's Disease therapeutics” (Elan Pharma International Limited, priority 2005, dated 2011)
Read-outs that look alike come from different tables or passages of the source.

Key:
Parkin = assay: GFPu assay in HEK293 cells transfected with wild type Parkin (aggresome formation / proteasome function); format: cell-based, human; details: for aggresome formation (qualitative, GFPu screen): LOPAC screen hits
Procedure: A summary of the finalized automation scheme is outlined in FIG. 12. Briefly, cells were manually transfected with Parkin using the Fugene Reagent (Roche) and then incubated for three hours at 37° C. […] Compounds were then added to the cell plate at a final concentration of 10 uM using the Multimek™ Automated Pipettor. Compounds were incubated with cells for 45 hours at 37° C. and then the media was gently aspirated with the Multimek. A mixture of 1 ug/ml Hoechst dye and 4% paraformaldehyde were then added to the cells for 40 minutes at room temperature using the Titertek Multidrop™ Lab System. Cell plates were subsequently washed using the Tecan PowerWasher and then read on the Cellomcis ArrayScan. A detailed protocol outlining this process step by step is shown in Example 8.
This example describes a protocol for the GFPu Assay in 96-well format. It will be appreciated that the protocol can be readily modified for other multi-well formats and that certain parameters can vary. […] Dose-response curves are generated using methods known in the art. Typically, serial 2-fold or 3-fold dilutions (usually in the range 10 uM to 50 pM) are tested.
1) HEK293 cells stably expressing GFP are cultured in DMEM containing 10% FBS, glutamine 2 mM and G418 sulfate at 600 μg/ml.
2) HEK 293 cells are harvested using PBS containing 5 mM EDTA. 180 μl of HEK293 cells at 67,000 cells/ml are then plated onto Costar PDL coated plates (#3667). After seeding cells on the plate, we let them sit for 30 minutes at room temperature in the tissue culture hood before placing them back into the incubator. This treatment may help reduce edge effects and is optional.
3) Incubate the plate overnight at 37° C./5% CO2 in the incubator.
4) A typical transfection cocktail is created as follows: Mix 50 ml of serum free DMEM with 1.087 ml of Fugene and wait 5 minutes at room temperature. Next add 375 μg of Parkin DNA or control vector, gently mix and incubate 35-45 minutes at room temperature.
5) Add 20 μl of transfection cocktail to each well of the plate and place back in the incubator for three hours at 37° C.
6) Add 20 μl of compound to all relevant wells. Final in-well concentration for compound is 10 μM. The DMSO concentration final in-well is 0.2%. Compound plates are diluted using serum free DMEM.
7) Plates are then incubated for 45 hours at 37° C. and 5% CO2.
8) Aspirate media out of wells.
9) Add […] a mixture containing 1 μg/ml Hoechst dye and 4% paraformaldehyde in 0.1M NaPhosphate buffer for 40 minutes at room temperature.
10) Wash with PBS containing calcium and magnesium and leave 200 μl in well.
11) Read on the ArrayScan using the Target Activation Bioapplication. […]
(§1) Dose response curves were generated by exposing cells to compounds at various concentrations. […] “Hill” refers to the Hill Slope.

CFTR = assay: GFPu assay selectivity screen, cells transfected with CFTR; format: cell-based; details: 10 uM to about 78 nM
Text: (§2) The first is the RING finger ligase NRDP1 as a molecule structurally and functionally similar to Parkin. The second is the Cystic Fibrosis Transmembrane Conductance Regulator (CFTR) as a molecule that is a twelve-pass membrane channel protein, and structurally not related to Parkin.
as §1

HEK293 cells = assay: Cytotoxicity (cell count) in HEK293 cells; details: for cytotoxicity: HEK293 cells
Text: In terms of charactering cytotoxicity, compounds were given a low rating if the cell count was >75% of control levels, a medium rating if the cell count was between 50 and 75% of control wells, and a high rating if the cell count was less than 50% of control levels.

NRDP1 = assay: GFPu assay selectivity screen, cells transfected with NRDP1; format: cell-based; details: for IC50: GFPu assay, NRDP1 transfected cells, 10 uM to about 78 nM, read-out: NRDP IC50
Text: as §2, §1

aldehyde dehydrogenase = details: at higher concentrations (25-50 uM); cited from earlier work
3-PI-dependent kinase 1 = molecular target: T1, 3-PI-dependent kinase 1 (Homo sapiens, UniProt O15530); details: at higher concentrations (25-50 uM); cited from earlier work
T1 sequence (O15530 1-556): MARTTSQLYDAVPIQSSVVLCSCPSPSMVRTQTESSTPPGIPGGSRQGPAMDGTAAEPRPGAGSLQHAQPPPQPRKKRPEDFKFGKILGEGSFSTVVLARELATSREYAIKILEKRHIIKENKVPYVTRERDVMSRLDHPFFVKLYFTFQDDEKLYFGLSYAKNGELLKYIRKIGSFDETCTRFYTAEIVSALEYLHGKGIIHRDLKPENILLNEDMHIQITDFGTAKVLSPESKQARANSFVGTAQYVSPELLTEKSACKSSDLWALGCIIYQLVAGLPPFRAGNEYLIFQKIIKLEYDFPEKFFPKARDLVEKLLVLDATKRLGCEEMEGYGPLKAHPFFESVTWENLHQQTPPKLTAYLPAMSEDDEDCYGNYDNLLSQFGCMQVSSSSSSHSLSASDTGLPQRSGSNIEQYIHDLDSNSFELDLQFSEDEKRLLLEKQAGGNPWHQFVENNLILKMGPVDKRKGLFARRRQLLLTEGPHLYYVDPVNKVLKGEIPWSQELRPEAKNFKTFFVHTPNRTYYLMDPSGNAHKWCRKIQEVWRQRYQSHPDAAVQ

[1] = test system: cAMP dependent protein kinase; details: at higher concentrations (25-50 uM); cited from earlier work
aggresome formation = details: Johnston et al., 1998; cited from earlier work
[2] = Homo sapiens, HEK293, GFPu assay, Parkin transfected cells, eight 2-fold dilutions 10 uM to about 78 nM, read-out: Parkin IC50
[3] = dose response, eight 2-fold dilutions 10 uM to about 78 nM
[4] = Parkin expressing HEK293 cells, read-out: IC50 in the GFPu assay
[5] = Homo sapiens, Parkin expressing HEK293 cells, read-out: IC50 in the GFPu assay

Structure (SMILES)	IC50 (Parkin; [2]) [µM]	aggresome formation (qualitative, GFPu screen) (Parkin)	IC50 (CFTR) [µM]	IC50 (NRDP1) [µM]	TC50 (HEK293 cells; human) [µM]	IC50 (Parkin; [5]) [µM]	further results
O=C(O)CCCc1ccc(N(CCCl)CCCl)cc1 [ELN29018, chlorambucil]	7.25	decreased aggresome formation	> 10				cytotoxicity (HEK293 cells): did not exhibit much cytotoxicity; TC50 (HEK293 cells; [3]): >10; NRDP % @ 10 (NRDP1; @ 10): 32% @ 10
O=c1[nH]cc(F)c(=O)[nH]1 [ELN29019, 5-fluoruracil]			> 10	1.6			IC50 (Parkin; [4]): 9 µM; TC50 (HEK293 cells): > 10 µM
COC(=O)Nc1nc2ccc(C(=O)c3cccs3)cc2[nH]1 [ELN475312, nocodazol]	1.07	inhibitors of aggresome formation	> 10	> 10	< 0.078		
Nc1ncn([C@@H]2O[C@H](CO)[C@@H](O)[C@H]2O)c(=O)n1 [ELN476201, 5-azacytidine]	5.36		> 10	5.81	> 10	5.36	
O=C(N[C@@H](Cc1ccccc1)C(=O)CCl)OCc1ccccc1 [ELN476309, ZPCK]			3.88	0.26			IC50 (Parkin; GFPu assay, Parkin transfected cells, eight 2-fold dilutions 10 uM to about 78 nM, read-out: Parkin IC50): 4.12 µM; IC50 (Parkin; [4]): 4.1 µM; TC50 (HEK293 cells): 10 µM
COc1cc2c(c(OC)c1OC)-c1ccc(OC)c(=O)cc1[C@@H](NC(C)=O)CC2 [ELN476311, colchicine]		inhibitors of aggresome formation					TC50 (HEK293 cells; [3]): <0.078
N[C@@H](Cc1ccc(N(CCCl)CCCl)cc1)C(=O)O [ELN476469, melphalan]	6.06	decreased aggresome formation	> 10	> 10			cytotoxicity (HEK293 cells): did not exhibit much cytotoxicity; TC50 (HEK293 cells; [3]): >10
O=C1c2c(O)ccc(O)c2C(=O)c2c(NCCNCCO)ccc(NCCNCCO)c21 [ELN476491, mitoxantrone]	< 0.078		1.58	1.5	6.53	< 0.078	
O=c1c(O)c(-c2cc(O)c(O)c(O)c2)oc2cc(O)cc(O)c12 [ELN476493, myricetin]	> 10		> 10	> 10	> 10		inhibition at 10 µM (Parkin; Homo sapiens, HEK293, at 10 μM, LOPAC screen): 59%; % inhibition upon dose-response curve follow-up (Parkin; dose-response curve follow-up, 40% inhibition threshold): < 40%
COC[C@H]1OC(=O)c2coc3c2[C@@]1(C)C1=C(C3=O)[C@@H]2CCC(=O)[C@@]2(C)C[C@H]1OC(C)=O [ELN476646, Wortmannin]	0.75		> 10	> 10	1.9	0.75	
COc1cc([C@@H]2c3cc4c(cc3[C@H](O)[C@H]3COC(=O)[C@H]23)OCO4)cc(OC)c1OC [ELN476767, podophyllotoxin]	< 0.078	inhibitors of aggresome formation	> 10	> 10		< 0.078	TC50 (HEK293 cells; [3]): <0.078
CC(=O)O[C@H]1C(=O)[C@@]2(C)[C@H]([C@H](OC(=O)c3ccccc3)[C@]3(O)C[C@H](OC(=O)[C@H](O)[C@@H](NC(=O)c4ccccc4)c4ccccc4)C(C)=C1C3(C)C)[C@]1(OC(C)=O)CO[C@@H]1C[C@@H]2O [ELN476780, taxol]	< 0.156	inhibitors of aggresome formation	> 10	> 10	< 0.078	< 0.078	
CN(Cc1cnc2nc(N)nc(N)c2n1)c1ccc(C(=O)N[C@@H](CCC(=O)O)C(=O)O)cc1 [ELN476809, methotrexate]	< 0.078		> 10	0.156	> 10	< 0.078	
Cc1ccc(S(=O)(=O)N[C@@H](Cc2ccccc2)C(=O)CCl)cc1 [ELN477056, TPCK]			> 10	5.47			IC50 (Parkin; [4]): 9.25 µM; TC50 (HEK293 cells; [3]): >10
CC[C@]1(O)C[C@@H]2CN(CCc3c([nH]c4ccccc34)[C@@](C(=O)OC)(c3cc4c(cc3OC)N(C)[C@H]3[C@@](O)(C(=O)OC)[C@H](OC(C)=O)[C@]5(CC)C=CCN6CC[C@]43[C@@H]65)C2)C1 [ELN477062, vinblastine]	< 0.078	inhibitors of aggresome formation	> 10	> 10	< 0.078		
CC[C@]1(O)C[C@H]2CN(CCc3c([nH]c4ccccc34)[C@@](C(=O)OC)(c3cc4c(cc3OC)N(C=O)[C@H]3[C@@](O)(C(=O)OC)[C@H](OC(C)=O)[C@]5(CC)C=CCN6CC[C@]43[C@@H]65)C2)C1 [ELN477063, vincristine]	< 0.078	inhibitors of aggresome formation	> 10	> 10	< 0.078		
Cc1ccc(S(=O)(=O)N[C@@H](Cc2ccccc2)C(=O)CCl)cc1 [TPCK]							inhibition of aldehyde dehydrogenase (aldehyde dehydrogenase): inhibit; inhibition of 3-PI-dependent kinase 1 (3-PI-dependent kinase 1): inhibit; inhibition of cAMP dependent protein kinase [1]: inhibit
COc1cc2c(c(OC)c1OC)-c1ccc(OC)c(=O)cc1[C@@H](NC(C)=O)CC2 [colchicine]							aggresome formation (literature) (aggresome formation): completely abrogated aggresome formation
COC(=O)Nc1nc2ccc(C(=O)c3cccs3)cc2[nH]1 [nocodazol]							aggresome formation (literature) (aggresome formation): completely abrogated aggresome formation
CC[C@]1(O)C[C@@H]2CN(CCc3c([nH]c4ccccc34)[C@@](C(=O)OC)(c3cc4c(cc3OC)N(C)[C@H]3[C@@](O)(C(=O)OC)[C@H](OC(C)=O)[C@]5(CC)C=CCN6CC[C@]43[C@@H]65)C2)C1 [vinblastine]							aggresome formation (literature) (aggresome formation): completely abrogated aggresome formation
